The target of test [1] is T1, KRAS(G12C) (Homo sapiens, UniProt P01116, G12C). Briefly: KRAS(G12C) Western blot protein degradation assay in LU65A cells. Conditions: 6 hr. On the set-up: LU65A human lung cancer cell line, which expresses KRAS(G12C); host or cells: LU65A. The format is cell-based. In outline:
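KRAS levels read by fluorescent Western blot (β-actin as reference) on BCA-normalized lysates. Exposure to a compound concentration range at 37 °C lasted 6 hr in LU65A and 48 hr in MIA PaCa-2; DC50 taken as half-maximal degradation concentration.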
A general note: A western blot detects proteins with antibodies after separation by electrophoresis.

Test [2] addresses T1, KRAS(G12C). Briefly: KRAS(G12C)/SOS1 homogeneous time-resolved fluorescence (HTRF) assay. On the set-up: purchased Cisbio 63ADK000CB16PEG. The following applies: absence of GTP, 4° C. for 3 hr, read-out: KRAS (G12C) binding. A digest of the protocol: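 Three-hour incubation at 4 °C of 3-fold compound dilutions (lowest 1.02 nM) with KRAS(G12C), SOS1 and detection reagents, GTP absent. Disruption of the KRAS(G12C)/SOS1 complex detected by time-resolved fluorescence.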
(Time-resolved FRET reads energy transfer from a long-lived donor to a nearby acceptor.)

Test [3] concerns MIA PaCa-2 human pancreatic carcinoma. Briefly: MIA PaCa-2 CCK-8 proliferation assay. The format is cell-based. The following applies: Homo sapiens, MIA PaCa-2, 72 h, MIA PaCa-2 cells. A digest of the protocol: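 KRAS(G12C) lines were used: MIA PaCa-2 with 2 copies, and NCI-H358 and NCI-H23 with 1 copy each. Cells were treated with 3-fold compound dilutions from 20 μM to 1.02 nM, and proliferation was read by CCK-8 absorbance. % inhibition was calculated against DMSO-treated cells after subtracting the cell-free medium blank.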
(In general: Tetrazolium dyes change colour on reduction, which living cells bring about.)

The next test has as its target T2, HSP90a protein (Homo sapiens, UniProt P07900).
T2 construct: purchased BPS Bioscience 50298
Briefly: HSP90α-binding fluorescent polarization (FP) assay, BODIPY-labeled RNK04010 probe. The following applies: FP competition with RNK04010 (BODIPY-labeled), 5 nM, 300 min at 25° C. A digest of the protocol:
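Compounds (20 μM down to 5.2 nM, 2.5-fold steps) compete with a 5 nM fluorescent tracer for N-terminal HSP90a, measured by fluorescence polarization. With FITC-geldanamycin, plates sit 120 min at 25 °C. With BODIPY-RNK04010, they sit 300 min at 25 °C.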

Usually DC50 stands for the concentration at which degradation of the target reaches its halfway point. Lower therefore signals a more potent degrader. For orientation: EC50 means the concentration needed to bring the measured effect to its halfway point.

T1 sequence (P01116 1-188 isoform P01116-2 G12C): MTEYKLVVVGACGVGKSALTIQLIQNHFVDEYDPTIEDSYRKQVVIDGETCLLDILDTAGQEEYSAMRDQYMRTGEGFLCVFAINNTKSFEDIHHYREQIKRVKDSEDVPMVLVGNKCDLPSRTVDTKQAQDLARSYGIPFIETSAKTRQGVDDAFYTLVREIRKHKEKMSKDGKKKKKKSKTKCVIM

The compound `C=CC(=O)N1CCN(c2nc(OC[C@@H]3C[C@H](C(=O)N4CCN(Cc5ccc(-n6c(C(=O)NCC(F)(F)F)nnc6-c6cc(C)c(O)cc6O)cc5)CC4)CN3C)nc3c2CCN(c2cccc4cccc(Cl)c24)C3)C[C@@H]1CC#N` [Compound 347, 4-[4-({4-[(3S,5S)-5-({[7-(8-chloronaphthalen-1-yl)-4-[(3S)-3-(cyanomethyl)-4-(prop-2-enoyl)piperazin-1-yl]-5H,6H,8H-pyrido[3,4-d]pyrimidin-2-yl]oxy}methyl)-1-methylpyrrolidine-3-carbonyl]piperazin-1-yl}methyl)phenyl]-5-(2,4-dihydroxy-5-methylphenyl)-N-(2,2,2-trifluoroethyl)-1,2,4-triazole-3-carboxamide] gave a DC50 on KRAS(G12C) [1] greater than 1000 nM. Besides, the IC50 at KRAS(G12C) [2] and on HSP90a protein was less than 100 nM throughout. In addition, the EC50 in test [3] was in the range of 100 to 1000 nM.

For the compound `C=CC(=O)N1CCN(c2nc(OCCN3CCN(C(=O)C4CCN(Cc5ccc(-n6c(C(=O)NCC(F)(F)F)nnc6-c6cc(C(C)C)c(O)cc6O)cc5)CC4)CC3)nc3c2CCN(c2cccc4cccc(Cl)c24)C3)C[C@@H]1CC#N` [Compound 206, (S)-4-(4-((4-(4-(2-((4-(4-acryloyl-3-(cyanomethyl)piperazin-1-yl)-7-(8-chloronaphthalen-1-yl)-5,6,7,8-tetrahydropyrido[3,4-d]pyrimidin-2-yl)oxy)ethyl)piperazine-1-carbonyl)piperidin-1-yl)methyl)phenyl)-5-(2,4-dihydroxy-5-isopropylphenyl)-N-(2,2,2-trifluoroethyl)-4H-1,2,4-triazole-3-carboxamide, trifluoroacetic acid], the DC50 at KRAS(G12C) [1] is greater than 1000 nM. Also, the figures for the IC50 on KRAS(G12C) [2] and on HSP90a protein were 100 to 1000 nM and less than 100 nM, respectively. In addition, in test [3], the EC50 lay within 100 to 1000 nM.

As to `C=CC(=O)N1CCN(c2nc(OC[C@@H]3C[C@H](N4CCC(C(=O)N5CCN(Cc6ccc(-n7c(C(=O)NCC(F)(F)F)nnc7-c7cc(C)c(O)cc7O)cc6)CC5)CC4)CN3C)nc3c2CCN(c2cccc4cccc(Cl)c24)C3)C[C@@H]1CC#N` [Compound 336, 4-{4-[(4-{1-[(3S,5S)-5-({[7-(8-chloronaphthalen-1-yl)-4-[(3S)-3-(cyanomethyl)-4-(prop-2-enoyl)piperazin-1-yl]-5H,6H,8H-pyrido[3,4-d]pyrimidin-2-yl]oxy}methyl)-1-methylpyrrolidin-3-yl]piperidine-4-carbonyl}piperazin-1-yl)methyl]phenyl}-5-(2,4-dihydroxy-5-methylphenyl)-N-(2,2,2-trifluoroethyl)-1,2,4-triazole-3-carbox-amide], the DC50 at KRAS(G12C) [1] is greater than 1000 nM. The IC50 at KRAS(G12C) [2] and on HSP90a protein was less than 100 nM throughout. This compound had an EC50 in test [3] of 100 to 1000 nM.

`C=CC(=O)N1CCN(c2nc(OCC3CN(C(=O)C4CCN(Cc5ccc(-n6c(C(=O)NCC(F)(F)F)nnc6-c6cc(C)c(O)cc6O)cc5)CC4)C3)nc3c2CCN(c2cccc4cccc(Cl)c24)C3)C[C@@H]1CC#N` [Compound 219, (S)-4-(4-((4-(3-(((4-(4-acryloyl-3-(cyanomethyl)piperazin-1-yl)-7-(8-chloronaphthalen-1-yl)-5,6,7,8-tetrahydropyrido[3,4-d]pyrimidin-2-yl)oxy)methyl)azetidine-1-carbonyl)piperidin-1-yl)methyl)phenyl)-5-(2,4-dihydroxy-5-methylphenyl)-N-(2,2,2-trifluoroethyl)-4H-1,2,4-triazole-3-carboxamide]: the DC50 on KRAS(G12C) [1] was greater than 1000 nM. Further, the IC50 is 100 to 1000 nM at KRAS(G12C) [2] and less than 100 nM at HSP90a protein. The compound also gave an EC50 in test [3] greater than 1000 nM.

`C=CC(=O)N1CCN(c2nc(OC[C@@H]3C[C@H](N4CCC5(CCN(Cc6ccc(-n7c(O)nnc7-c7cc(C)c(O)cc7O)cc6)CC5)CC4)CN3C)nc3c2CCN(c2cccc4cccc(Cl)c24)C3)C[C@@H]1CC#N` [Compound 228, 2-[(2S)-4-[7-(8-chloronaphthalen-1-yl)-2-{[(2S,4S)-4-[9-({4-[3-(2,4-Dihydroxy-5-methylphenyl)-5-hydroxy-1,2,4-triazol-4-yl]phenyl}methyl)-3,9-diazaspiro[5.5]undecan-3-yl]-1-methylpyrrolidin-2-yl]methoxy}-5H,6H,8H-pyrido[3,4-d]pyrimidin-4-yl]-1-(prop-2-enoyl)piperazin-2-yl]acetonitrile] gave a DC50 on KRAS(G12C) [1] greater than 1000 nM. Moreover, the IC50 at KRAS(G12C) [2] and at HSP90a protein was less than 100 nM each time. Also, in test [3], the EC50 lay within 100 to 1000 nM.

At KRAS(G12C) [1], `C=CC(=O)N1CCN(c2nc(OCCN3CCN(C(=O)C4CCN(Cc5ccc(-n6c(O)nnc6-c6cc(C(C)C)c(O)cc6O)cc5)CC4)CC3)nc3c2CCN(c2cccc4cccc(Cl)c24)C3)C[C@@H]1CC#N` [Compound 192, (S)-2-(1-acryloyl-4-(7-(8-chloronaphthalen-1-yl)-2-(2-(4-(1-(4-(3-(2,4-dihydroxy-5-isopropylphenyl)-5-hydroxy-4H-1,2,4-triazol-4-yl)benzyl)piperidine-4-carbonyl)piperazin-1-yl)ethoxy)-5,6,7,8-tetrahydropyrido[3,4-d]pyrimidin-4-yl)piperazin-2-yl)acetonitrile, trifluoroacetic acid] came in with a DC50 of 100 to 1000 nM. Further, the IC50 on KRAS(G12C) [2] and at HSP90a protein was less than 100 nM throughout. The EC50 in test [3] was 100 to 1000 nM.

On to `C=CC(=O)N1CCN(c2nc(OC[C@@H]3CC[C@H](CN4CCN(Cc5ccc(-n6c(O)nnc6-c6cc(C)c(O)cc6O)cc5)CC4)N3C)nc3c2CCN(c2cccc4cccc(Cl)c24)C3)C[C@@H]1CC#N` [Compound 227, 2-[(2S)-4-[7-(8-chloronaphthalen-1-yl)-2-{[(2S,5R)-5-{[4-({4-[3-(2,4-dihydroxy-5-methylphenyl)-5-hydroxy-1,2,4-triazol-4-yl]phenyl}methyl)piperazin-1-yl]methyl}-1-methylpyrrolidin-2-yl]methoxy}-5H,6H,8H-pyrido[3,4-d]pyrimidin-4-yl]-1-(prop-2-enoyl)piperazin-2-yl]acetonitrile], for which the DC50 on KRAS(G12C) [1] was greater than 1000 nM. The IC50 on KRAS(G12C) [2] and on HSP90a protein was less than 100 nM each time. Moreover, in test [3], the EC50 fell in the range of 100 to 1000 nM.

`C=CC(=O)N1CCN(c2nc(OC[C@@H]3C[C@H](N4CCC(C(=O)N5CC6(CCN(Cc7ccc(-n8c(O)nnc8-c8cc(C(C)C)c(O)cc8O)cc7)CC6)C5)CC4)CN3C)nc3c2CCN(c2cccc4cccc(Cl)c24)C3)C[C@@H]1CC#N` [Compound 348, 2-[(2S)-4-[7-(8-chloronaphthalen-1-yl)-2-{[(2S,4S)-4-{4-[7-({4-[3-(2,4-dihydroxy-5-isopropylphenyl)-5-hydroxy-1,2,4-triazol-4-yl]phenyl}methyl)-2,7-diazaspiro [3.5]nonane-2-carbonyl]piperidin-1-yl}-1-methylpyrrolidin-2-yl]methoxy}-5H,6-H,8H-pyrido[3,4-d]pyrimidin-4-yl]-1-(prop-2-enoyl)piperazin-2-yl]acetonitrile] registered a 50% degradation concentration (DC50) on KRAS(G12C) [1] of 100 to 1000 nM. The IC50 at KRAS(G12C) [2] and on HSP90a protein was less than 100 nM throughout. This compound also returned an EC50 in test [3] of 100 to 1000 nM.

`C=CC(=O)N1CCN(c2nc(OC[C@@H]3C[C@H](C(=O)NCCc4ccc(CN5CCC(Cc6ccc(-n7c(C(=O)NCC(F)(F)F)nnc7-c7cc(C(C)C)c(O)cc7O)cc6)CC5)cc4)CN3C)nc3c2CCN(c2cccc4cccc(Cl)c24)C3)C[C@@H]1CC#N` [Compound 346, 4-{4-[(1-{[4-(2-{[(3S,5S)-5-({[7-(8-chloronaphthalen-1-yl)-4-[(3S)-3-(cyanomethyl)-4-(prop-2-enoyl)piperazin-1-yl]-5H,6H,8H-pyrido[3,4-d]pyrimidin-2-yl]oxy}methyl)-1-methylpyrrolidin-3-yl]formamido}ethyl)phenyl]methyl}piperidin-4-yl)methyl]phenyl}-5-(2,4-dihydroxy-5-isopropylphenyl)-N-(2,2,2-trifluoroethyl)-1,2,4-triazole-3-carboxamide] registered a 50% degradation concentration (DC50) at KRAS(G12C) [1] of 100 to 1000 nM. The IC50 on KRAS(G12C) [2] and on HSP90a protein was less than 100 nM each time. In addition, the EC50 in test [3] lay in the range of 100 to 1000 nM.

For the compound `C=CC(=O)N1CCN(c2nc(OC[C@@H]3C[C@H](C(=O)N[C@@H]4CCCN(Cc5ccc(-n6c(O)nnc6-c6cc(C(C)C)c(O)cc6O)cc5)C4)CN3C)nc3c2CCN(c2cccc4cccc(Cl)c24)C3)C[C@@H]1CC#N` [Compound 229, (3S,5S)-5-({[7-(8-chloronaphthalen-1-yl)-4-[(3S)-3-(cyanomethyl)-4-(prop-2-enoyl)piperazin-1-yl]-5H,6H,8H-pyrido[3,4-d]pyrimidin-2-yl]oxy}methyl)-N-[(3R)-1-({4-[3-(2,4-dihydroxy-5-isopropylphenyl)-5-hydroxy-1,2,4-triazol-4-yl]phenyl}methyl)piperidin-3-yl]-1-methylpyrrolidine-3-carboxamide], the 50% degradation concentration (DC50) on KRAS(G12C) [1] was greater than 1000 nM. Moreover, the IC50 on KRAS(G12C) [2] and on HSP90a protein was less than 100 nM throughout. For the same compound, the half-maximal effective concentration (EC50) in test [3] is greater than 1000 nM.

These data come from patent publication US20230391772A1, “METHODS AND COMPOSITIONS FOR TARGETED PROTEIN DEGRADATION” (Ranok Therapeutics (Hangzhou) Co. Ltd., priority 2020, published 2023).
